Data: ChEMBL document CHEMBL1151757, “Synthesis, radiosynthesis, and biological evaluation of fluorine-18-labeled 2beta-carbo(fluoroalkoxy)-3beta-(3'-((Z)-2-haloethenyl)phenyl)nortropanes: candidate radioligands for in vivo imaging of the serotonin transporter with positron emission tomography” (J Med Chem, 2008)

Columns and labels:
[1] = Drug uptake in anesthetized cynomolgus monkey brain frontal lobe after 6.5 mins postinjection; type: ADME, organism-based, Macaca fascicularis; details: in vivo
Putamen [2] = experiment: Drug uptake in anesthetized cynomolgus monkey brain putamen after 175 mins postinjection; type: ADME, organism-based, Macaca fascicularis; details: in vivo
Pons [3] = experiment: Drug uptake in anesthetized cynomolgus monkey brain pons after 22.5 mins postinjection; type: ADME, organism-based, Macaca fascicularis; details: in vivo, 0.375 h
Pons [4] = experiment: Drug uptake in anesthetized cynomolgus monkey brain pons after 65 mins postinjection; type: ADME, organism-based, Macaca fascicularis; details: in vivo
Caudate [5] = experiment: Drug uptake in anesthetized cynomolgus monkey brain caudate after 155 mins postinjection; type: ADME, organism-based, Macaca fascicularis, Caudate nucleus; details: in vivo
Caudate [6] = experiment: Drug uptake in anesthetized cynomolgus monkey brain caudate after 145 mins postinjection; type: ADME, organism-based, Macaca fascicularis, Caudate nucleus; details: in vivo
[7] = Ratio of drug uptake in occipital lobe to cerebellum in anesthetized cynomolgus monkey after 4.5 mins postinjection; type: ADME, organism-based, Macaca fascicularis; details: in vivo, 0.075 h
[8] = Ratio of drug uptake in pons to cerebellum in anesthetized cynomolgus monkey after 215 mins postinjection; type: ADME, organism-based, Macaca fascicularis; details: in vivo
Medulla [9] = experiment: Drug uptake in anesthetized cynomolgus monkey brain medulla after 55 mins postinjection; type: ADME, organism-based, Macaca fascicularis; details: in vivo
[10] = Drug uptake in anesthetized cynomolgus monkey brain occipital lobe after 3.5 mins postinjection; type: ADME, organism-based, Macaca fascicularis; details: in vivo
[11] = Ratio of drug uptake in thalamus to cerebellum in anesthetized cynomolgus monkey after 115 mins postinjection; type: ADME, organism-based, Macaca fascicularis; details: in vivo
Medulla [12] = experiment: Drug uptake in anesthetized cynomolgus monkey brain medulla after 9.5 mins postinjection; type: ADME, organism-based, Macaca fascicularis; details: in vivo
Pons [13] = experiment: Drug uptake in anesthetized cynomolgus monkey brain pons after 225 mins postinjection; type: ADME, organism-based, Macaca fascicularis; details: in vivo, 3.75 h
[14] = Drug uptake in anesthetized cynomolgus monkey brain cerebellum after 135 mins postinjection; type: ADME, organism-based, Macaca fascicularis; details: in vivo, 2.25 h
Putamen [15] = experiment: Drug uptake in anesthetized cynomolgus monkey brain putamen after 15.5 mins postinjection; type: ADME, organism-based, Macaca fascicularis; parameters: unit not given here; details: in vivo
[16] = Ratio of drug uptake in pons to cerebellum in anesthetized cynomolgus monkey after 6.5 mins postinjection; type: ADME, organism-based, Macaca fascicularis; details: in vivo
Thalamus [17] = experiment: Drug uptake in anesthetized cynomolgus monkey brain thalamus after 27.5 mins postinjection; type: ADME, organism-based, Macaca fascicularis; parameters: unit not given here; details: in vivo
[18] = Ratio of drug uptake in frontal lobe to cerebellum in anesthetized cynomolgus monkey after 205 mins postinjection; type: ADME, organism-based, Macaca fascicularis; details: in vivo
Putamen [19] = experiment: Drug uptake in anesthetized cynomolgus monkey brain putamen after 0.5 mins postinjection; type: ADME, organism-based, Macaca fascicularis; details: in vivo
[20] = Drug uptake in anesthetized cynomolgus monkey brain cerebellum after 45 mins postinjection; type: ADME, organism-based, Macaca fascicularis; details: in vivo, 0.75 h
[21] = Ratio of drug uptake in midbrain to cerebellum in anesthetized cynomolgus monkey after 18.5 mins postinjection; type: ADME, organism-based, Macaca fascicularis; details: in vivo
[22] = Ratio of drug uptake in frontal lobe to cerebellum in anesthetized cynomolgus monkey after 195 mins postinjection; type: ADME, organism-based, Macaca fascicularis; details: in vivo, 3.25 h
Thalamus [23] = experiment: Drug uptake in anesthetized cynomolgus monkey brain thalamus after 115 mins postinjection; type: ADME, organism-based, Macaca fascicularis; parameters: unit not given here; details: in vivo
Pons [24] = experiment: Drug uptake in anesthetized cynomolgus monkey brain pons after 95 mins postinjection; type: ADME, organism-based, Macaca fascicularis; details: in vivo
[25] = Drug uptake in anesthetized cynomolgus monkey brain occipital lobe after 1.5 mins postinjection; type: ADME, organism-based, Macaca fascicularis; details: in vivo, 0.025 h
[26] = Ratio of drug uptake in medulla to cerebellum in anesthetized cynomolgus monkey after 195 mins postinjection; type: ADME, organism-based, Macaca fascicularis; details: in vivo, 3.25 h
[27] = Drug uptake in anesthetized cynomolgus monkey brain occipital lobe after 205 mins postinjection; type: ADME, organism-based, Macaca fascicularis; details: in vivo
[28] = Ratio of drug uptake in putamen to cerebellum in anesthetized cynomolgus monkey after 45 mins postinjection; type: ADME, organism-based, Macaca fascicularis; details: in vivo, 0.75 h
Putamen [29] = experiment: Drug uptake in anesthetized cynomolgus monkey brain putamen after 155 mins postinjection; type: ADME, organism-based, Macaca fascicularis; details: in vivo
Putamen [30] = experiment: Drug uptake in anesthetized cynomolgus monkey brain putamen after 22.5 mins postinjection; type: ADME, organism-based, Macaca fascicularis; parameters: unit not given here; details: in vivo, 0.375 h
Midbrain [31] = experiment: Drug uptake in anesthetized cynomolgus monkey brain midbrain after 205 mins postinjection; type: ADME, organism-based, Macaca fascicularis; details: in vivo
[32] = Ratio of drug uptake in pons to cerebellum in anesthetized cynomolgus monkey after 185 mins postinjection; type: ADME, organism-based, Macaca fascicularis; details: in vivo
[33] = Ratio of drug uptake in frontal lobe to cerebellum in anesthetized cynomolgus monkey after 95 mins postinjection; type: ADME, organism-based, Macaca fascicularis; details: in vivo
Thalamus [34] = experiment: Drug uptake in anesthetized cynomolgus monkey brain thalamus after 125 mins postinjection; type: ADME, organism-based, Macaca fascicularis; parameters: unit not given here; details: in vivo
Pons [35] = experiment: Drug uptake in anesthetized cynomolgus monkey brain pons after 215 mins postinjection; type: ADME, organism-based, Macaca fascicularis; details: in vivo
[36] = Ratio of drug uptake in thalamus to cerebellum in anesthetized cynomolgus monkey after 155 mins postinjection; type: ADME, organism-based, Macaca fascicularis; details: in vivo
Thalamus [37] = experiment: Drug uptake in anesthetized cynomolgus monkey brain thalamus after 15.5 mins postinjection; type: ADME, organism-based, Macaca fascicularis; parameters: unit not given here; details: in vivo
Pons [38] = experiment: Drug uptake in anesthetized cynomolgus monkey brain pons after 4.5 mins postinjection; type: ADME, organism-based, Macaca fascicularis; details: in vivo, 0.075 h
Thalamus [39] = experiment: Drug uptake in anesthetized cynomolgus monkey brain thalamus after 35 mins postinjection; type: ADME, organism-based, Macaca fascicularis; parameters: unit not given here; details: in vivo
Thalamus [40] = experiment: Drug uptake in anesthetized cynomolgus monkey brain thalamus after 9.5 mins postinjection; type: ADME, organism-based, Macaca fascicularis; parameters: unit not given here; details: in vivo
Caudate [41] = experiment: Drug uptake in anesthetized cynomolgus monkey brain caudate after 22.5 mins postinjection; type: ADME, organism-based, Macaca fascicularis, Caudate nucleus; details: in vivo, 0.375 h
[42] = Drug uptake in anesthetized cynomolgus monkey brain occipital lobe after 115 mins postinjection; type: ADME, organism-based, Macaca fascicularis; details: in vivo
Medulla [43] = experiment: Drug uptake in anesthetized cynomolgus monkey brain medulla after 225 mins postinjection; type: ADME, organism-based, Macaca fascicularis; details: in vivo, 3.75 h
[44] = Ratio of drug uptake in caudate to cerebellum in anesthetized cynomolgus monkey after 0.5 mins postinjection; type: ADME, organism-based, Macaca fascicularis; details: in vivo
[45] = Ratio of drug uptake in thalamus to cerebellum in anesthetized cynomolgus monkey after 135 mins postinjection; type: ADME, organism-based, Macaca fascicularis; details: in vivo, 2.25 h
Midbrain [46] = experiment: Drug uptake in anesthetized cynomolgus monkey brain midbrain after 2.5 mins postinjection; type: ADME, organism-based, Macaca fascicularis; parameters: unit not given here; details: in vivo
Caudate [47] = experiment: Drug uptake in anesthetized cynomolgus monkey brain caudate after 6.5 mins postinjection; type: ADME, organism-based, Macaca fascicularis, Caudate nucleus; details: in vivo
[48] = Ratio of drug uptake in pons to cerebellum in anesthetized cynomolgus monkey after 18.5 mins postinjection; type: ADME, organism-based, Macaca fascicularis; details: in vivo
[49] = Drug uptake in anesthetized cynomolgus monkey brain frontal lobe after 195 mins postinjection; type: ADME, organism-based, Macaca fascicularis; details: in vivo, 3.25 h
Pons [50] = experiment: Drug uptake in anesthetized cynomolgus monkey brain pons after 115 mins postinjection; type: ADME, organism-based, Macaca fascicularis; details: in vivo
[51] = Drug uptake in anesthetized cynomolgus monkey brain cerebellum after 155 mins postinjection; type: ADME, organism-based, Macaca fascicularis; details: in vivo
Medulla [52] = experiment: Drug uptake in anesthetized cynomolgus monkey brain medulla after 125 mins postinjection; type: ADME, organism-based, Macaca fascicularis; details: in vivo
Pons [53] = experiment: Drug uptake in anesthetized cynomolgus monkey brain pons after 235 mins postinjection; type: ADME, organism-based, Macaca fascicularis; details: in vivo
Medulla [54] = experiment: Drug uptake in anesthetized cynomolgus monkey brain medulla after 27.5 mins postinjection; type: ADME, organism-based, Macaca fascicularis; details: in vivo
Medulla [55] = experiment: Drug uptake in anesthetized cynomolgus monkey brain medulla after 45 mins postinjection; type: ADME, organism-based, Macaca fascicularis; details: in vivo, 0.75 h
Pons [56] = experiment: Drug uptake in anesthetized cynomolgus monkey brain pons after 3.5 mins postinjection; type: ADME, organism-based, Macaca fascicularis; details: in vivo
[57] = Drug uptake in anesthetized cynomolgus monkey brain frontal lobe after 225 mins postinjection; type: ADME, organism-based, Macaca fascicularis; details: in vivo, 3.75 h
Caudate [58] = experiment: Drug uptake in anesthetized cynomolgus monkey brain caudate after 185 mins postinjection; type: ADME, organism-based, Macaca fascicularis, Caudate nucleus; details: in vivo
Putamen [59] = experiment: Drug uptake in anesthetized cynomolgus monkey brain putamen after 4.5 mins postinjection; type: ADME, organism-based, Macaca fascicularis; parameters: unit not given here; details: in vivo, 0.075 h
Medulla [60] = experiment: Drug uptake in anesthetized cynomolgus monkey brain medulla after 135 mins postinjection; type: ADME, organism-based, Macaca fascicularis; details: in vivo, 2.25 h
[61] = Drug uptake in anesthetized cynomolgus monkey brain frontal lobe after 0.5 mins postinjection; type: ADME, organism-based, Macaca fascicularis; details: in vivo
Caudate [62] = experiment: Drug uptake in anesthetized cynomolgus monkey brain caudate after 135 mins postinjection; type: ADME, organism-based, Macaca fascicularis, Caudate nucleus; details: in vivo, 2.25 h
[63] = Ratio of drug uptake in putamen to cerebellum in anesthetized cynomolgus monkey after 6.5 mins postinjection; type: ADME, organism-based, Macaca fascicularis; details: in vivo
[64] = Drug uptake in anesthetized cynomolgus monkey brain occipital lobe after 75 mins postinjection; type: ADME, organism-based, Macaca fascicularis; details: in vivo, 1.25 h
[65] = Ratio of drug uptake in medulla to cerebellum in anesthetized cynomolgus monkey after 18.5 mins postinjection; type: ADME, organism-based, Macaca fascicularis; details: in vivo
[66] = Drug uptake in anesthetized cynomolgus monkey brain occipital lobe after 175 mins postinjection; type: ADME, organism-based, Macaca fascicularis; details: in vivo
[67] = Drug uptake in anesthetized cynomolgus monkey brain occipital lobe after 225 mins postinjection; type: ADME, organism-based, Macaca fascicularis; details: in vivo, 3.75 h
Medulla [68] = experiment: Drug uptake in anesthetized cynomolgus monkey brain medulla after 22.5 mins postinjection; type: ADME, organism-based, Macaca fascicularis; details: in vivo, 0.375 h

O=C(OCCC[18F])C1C2CCC(CC1c1cccc(/C=C\I)c1)N2 (stereo not drawn)
Drug uptake [1]: 1.88
Drug uptake (Putamen [2]): 3.61
Drug uptake (Pons [3]): 4.1
Drug uptake (Pons [4]): 4.54
Drug uptake (Caudate [5]): 3.19
Drug uptake (Caudate [6]): 3.24
Ratio [7]: 0.8
Ratio [8]: 1.5
Drug uptake (Medulla [9]): 5.06
Drug uptake [10]: 1.29
Ratio [11]: 1.4
Drug uptake (Medulla [12]): 3.97
Drug uptake (Pons [13]): 3.11
Drug uptake [14]: 2.66
Drug uptake (Putamen [15]): 4.27
Ratio [16]: 0.7
Drug uptake (Thalamus [17]): 4.66
Ratio [18]: 1
Drug uptake (Putamen [19]): 0.01
Drug uptake [20]: 4.48
Ratio [21]: 1
Ratio [22]: 0.9
Drug uptake (Thalamus [23]): 4.24
Drug uptake (Pons [24]): 4.41
Drug uptake [25]: 0.19
Ratio [26]: 1.7
Drug uptake [27]: 2.3
Ratio [28]: 1.1
Drug uptake (Putamen [29]): 3.8
Drug uptake (Putamen [30]): 4.71
Drug uptake (Midbrain [31]): 3.86
Ratio [32]: 1.5
Ratio [33]: 0.8
Drug uptake (Thalamus [34]): 4.15
Drug uptake (Pons [35]): 3.11
Ratio [36]: 1.6
Drug uptake (Thalamus [37]): 4.11
Drug uptake (Pons [38]): 1.92
Drug uptake (Thalamus [39]): 4.81
Drug uptake (Thalamus [40]): 3.45
Drug uptake (Caudate [41]): 3.53
Drug uptake [42]: 3.09
Drug uptake (Medulla [43]): 3.6
Ratio [44]: 1
Ratio [45]: 1.5
Drug uptake (Midbrain [46]): 0.98
Drug uptake (Caudate [47]): 2.53
Ratio [48]: 0.9
Drug uptake [49]: 1.96
Drug uptake (Pons [50]): 3.98
Drug uptake [51]: 2.32
Drug uptake (Medulla [52]): 4.54
Drug uptake (Pons [53]): 3.31
Drug uptake (Medulla [54]): 5.08
Drug uptake (Medulla [55]): 5.13
Drug uptake (Pons [56]): 1.71
Drug uptake [57]: 1.82
Drug uptake (Caudate [58]): 2.82
Drug uptake (Putamen [59]): 2.31
Drug uptake (Medulla [60]): 4.5
Drug uptake [61]: 0
Drug uptake (Caudate [62]): 3.34
Ratio [63]: 0.8
Drug uptake [64]: 3.68
Ratio [65]: 1
Drug uptake [66]: 2.55
Drug uptake [67]: 2.09
Drug uptake (Medulla [68]): 4.94
